In the NIST ThermoML archive (doi:10.1016/j.fluid.2007.06.017):
± gives the expanded uncertainty stated by the source.

Details: Crystal; DTA

`CCCCCCCCCCCCCC[P+](CCCCCC)(CCCCCC)CCCCCC.O=S(=O)([N-]S(=O)(=O)C(F)(F)F)C(F)(F)F` showed a Normal melting temperature of 33.00 ± 1 °C.
